Data published in patent publication US4313943A, “7-Chloro-2,3-dihydro-5-phenyl-1-propargyl-1H-1,4-benzodiazepine-2-one, and a pharmaceutical composition thereof” (priority 1972, dated 1982).
Entries after “also recorded” stand apart in the source; their conditions may differ.

Columns and labels:
[1] = Myorelaxant activity in the mouse (traction test); format: in vivo; conditions: after 30 minutes
Method: This was determined by the traction test of Joulon Courvoisier, following Boissier and Simon, in which the mouse is suspended by its front paws to a horizontal metal wire, and the animal's capacity to get up with its hind paws is observed. The test compounds were administered orally to the animals, in the doses shown in Table 5, as suspensions in 1% sodium carboxymethyl cellulose solution; and the animals were tested 30 minutes and 180 minutes after administration. The test animals were deemed to be myorelaxant if unable to get up within 5 seconds.

[2] = Acute toxicity in the mouse (oral); conditions: in vivo, mouse (male)
Method: (§1) The test compounds shown in Table 2 were administered orally to male mice and rats in the form of a suspension in a 1% solution of sodium carboxymethyl cellulose. The LD50 (lethal dose 50%) was calculated by the method of Litchfield and Wilcoxon.

[3] = Potentiation of narcosis (hexobarbitone sodium) in the mouse, Winter method; format: in vivo; conditions: hexobarbitone sodium 80 mg/kg i.p., control 33.3
Method: The Winter method was used, in which a state of narcosis is induced by the intraperitoneal administration of 80 mg/kg of hexobarbitone sodium, and is assessed by the loss of the righting reflex in the test animal. […] orally to the animals, in doses shown in Table 4, as suspensions in 1% sodium carboxymethyl cellulose solution; and the prolongation of narcosis in the animals thus treated was observed, by comparison with controls which received only the hexobarbitone administration.

[4] = Anti-convulsant activity in the mouse (convulsions induced by 1,5-pentamethylenetetrazole); format: in vivo; conditions: 30 min before pentamethylenetetrazole s.c.
Method: The inhibition of convulsions induced by 1,5-pentamethylenetetrazole was tested by the Clen method. The test compounds were administered orally to the mice, in the doses shown in Table 3, in the form of suspensions in 1% sodium carboxymethyl cellulose solution, and 30 minutes later the test animals were injected subcutaneously with […] of 1,5-pentamethylenetetrazole. The number of mice protected from lethal extensorial tonic spasms, per group of 10 test animals, was recorded.

[5] = Acute toxicity in the rat (oral); conditions: in vivo
Method: as §1

[6] = Hypnotic activity comparison (Janssen 1959); format: in vivo; conditions: Table 11; species not given
Method: Toxicity in test animals to the test compounds in terms of LD50 after oral and intraperitoneal administration was determined according to the procedure of Litchfield and Wilcoxan (1949) and the hypnotic effect on test animals was determined in accordance with the method of Janssen (1959).

[7] = Effect on muscular relaxation in mice (30° inclined screen, Randall); format: in vivo
Method: The method utilized was the procedure described by Randall (1961) using a 30° inclined screen.

[8] = Electrogenesis of various subcortical centers; format: in vivo; conditions: in vivo
Method: This study was conducted with test animals weighing between 2.6 and 2.8 kg, following the stereotaxic method of Monnier and Gangloff (Atlas et techniques stereotaxique pour le cerveau du lopin eveille, 1961, Elsevier Pub. Co.), permitting the stimulation of certain subcortical structures as well as a simultaneous detection and recording of their electrical activities, which were compared to that of reference cortical electrodes. In this study, the subcortical centers considered were the caudate nucleus, the dorsal hippocampus, the lateral thalamus, the mesenephalic reticular formation, and the hypothalamic reticular formation. Test compounds 1 and 4 were administered by the intragastric route with an identical dose of 7.5 mg/kg.
Spontaneous activity in the subcortical centers of the unanesthetized animals is characterized by desynchronized activity consisting of high amplitude and relatively slow rhythms (4 to 5 c/sec.), alternating with low amplitude rapid rhythms (12 to 13 c/sec.). Tracings from the hippocampus and caudate nucleus sometimes takes the form of bursts, which is less commonly the case from the thalamus. These may occur at the same time as bursts of rapid spikes arising from the frontal cortex. During periods of arousal, this desynchronized activity is followed by a synchronized theta rhythm (7 to 8 c/sec.) from the hippocampus and caudate nucleus and from the median thalamus, whereas the cortical and reticular electrical activities are transformed into ultra-rapid and low voltage rhythms (30μ volts).

[9] = Motor coordination in rats (rotarod, Dunham and Miya 1957); conditions: 68 mg/kg/os
[10] = Convulsions induced by pentamethylenetetrazol in rats; format: in vivo
Method: The method utilized was according to the method published by Everett and Richards (1944) and Banziger (1965). The pentamethylenetetrazol was given subcutaneously (125 mg/kg) and the test compounds were given orally suspended in a 1% carboxymethyl cellulose solution.

[11] = ECoG and sedation in test animals free to move; format: in vivo; conditions: unrestricted animals; compound 3 at 10 mg/kg
Method: Some test animals were kept in restraint cases placed in a relatively soundproof room and some were left free to move in metal cases measuring 40×50×30 cm, which were also kept in a relatively quiet environment.
In the test animals which were free to move, the first signs of sedation produced by the intragastric administration of 7.5 mg/kg of compounds 1 and 4 appeared, respectively, at 16 minutes (compound 1) and at 8 minutes (compound 4). […] The duration of the effect was, however, shorter, not exceeding 3 hours under these conditions in contrast to the 5 hour minimum for restricted animals.

C#CCN1C(=O)CN=C(c2ccccc2)c2cc([N+](=O)[O-])ccc21 [Compound 2, 7-nitro-2,3-dihydro-5-phenyl-1-propargyl-1H-1,4-benzodiazepin-2-one]
Percentage of myorelaxant animals ([1]; 1.0 mg/kg oral): 10%
Percentage of myorelaxant animals ([1]; 2.0 mg/kg oral): 20%
Percentage of myorelaxant animals ([1]; 4.0 mg/kg oral): 40%
Percentage of myorelaxant animals ([1]; 8.0 mg/kg oral): 60%
LD50 [2]: 1880 mg/kg
Duration of narcosis ([3]; 0.5 mg/kg oral): 53.4 min
Duration of narcosis ([3]; 1.0 mg/kg oral): 94.5 min
Duration of narcosis ([3]; 2.0 mg/kg oral): 195.1 min
No. of Animals Protected ([4]; 0.12 mg/kg oral): 1/10
No. of Animals Protected ([4]; 0.25 mg/kg oral): 4/10
No. of Animals Protected ([4]; 0.5 mg/kg oral): 9/10
LD50 [5]: 876 mg/kg

CN1C(=O)CN=C(c2ccccc2)c2cc(Cl)ccc21 [Compound 3, 7-chloro-1,3-dihydro-1-methyl-5-phenyl-2H-1,4-benzodiazepin-2-one, reference compound]
ED50 [6]: 242 mg/kg
% Relaxed Animals ([7]; 10 mg/kg/os): 20%
ED50 ([7]; Mus musculus, po, muscular relaxation, read-out: ED50 (and C.L.)): 14.1 mg/kg
EEG activity of the hippocampus ([8]; listed as Valium): depressed; also recorded: reduction in the amplitude of the hippocampal rhythm
% Uncoordinated Animals [9]: 50%
ED50 ([10]; Rattus norvegicus, oral, protection against pentamethylenetetrazol, read-out: ED50 (and C.L.) (converted)): 7.8 mg/kg
% Protected Animals ([10]; Time 90 min.): 20%
% Protected Animals ([10]; Time 120 min.): 10%
% Protected Animals ([10]; Time 180 min.): 0%
% Protected Animals ([10]; Time 240 min.): 0%
duration of ECoG effects (three compounds compared) [11]: about 31/2

CNC1=Nc2ccc(Cl)cc2C(c2ccccc2)=[N+]([O-])C1 [Librium, reference compound]
EEG activity of the hippocampus [8]: depressed; also recorded: reduction in the amplitude of the hippocampal rhythm
